Assay results reported in the supplement of paper PMC10307832.

Columns and labels:
Assay in all cases: relative viability (nuclei count vs DMSO), 5 days (fraction); higher = more cells survive
BEN = tested on: BEN
In short: (§1)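 Nuclei were stained with Hoechst during a one-step fixation (final 0.05% Triton X-100, 1% formaldehyde, 1 ug/ml Hoechst) carried out 5 days after dosing, then counted on 4× images. The cells, lung cancer lines in 1536-well plates, had been dosed by pin tool the day after seeding with one drug alone or a fixed anchor-drug dose plus five library-drug doses (not always all listed) in √10 steps. Relative viability is the nuclei count in treated wells divided by that in vehicle wells, and each value is the median of duplicate plates.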

EKVX = tested on: EKVX
In short: as §1

HARA = tested on: HARA
In short: as §1

HCC-366 = tested on: HCC-366
In short: as §1

HCC-827 = tested on: HCC-827
In short: as §1

LOU-NH91 = tested on: LOU-NH91
In short: as §1

NCI-H1355 = tested on: NCI-H1355
In short: as §1

NCI-H1437 = tested on: NCI-H1437
In short: as §1

NCI-H1734 = tested on: NCI-H1734
In short: as §1

NCI-H1792 = tested on: NCI-H1792
In short: as §1

NCI-H1993 = tested on: NCI-H1993
In short: as §1

NCI-H2009 = tested on: NCI-H2009
In short: as §1

NCI-H2087 = tested on: NCI-H2087
In short: as §1

NCI-H2170 = tested on: NCI-H2170
In short: as §1

NCI-H2405 = tested on: NCI-H2405
In short: as §1

NCI-H647 = tested on: NCI-H647
In short: as §1

NCI-H661 = tested on: NCI-H661
In short: as §1

SK-LU-1 = tested on: SK-LU-1
In short: as §1

SK-MES-1 = tested on: SK-MES-1
In short: as §1

## CCN(CC)CCCCNc1ncc2cc(-c3cc(OC)cc(OC)c3)c(NC(=O)NC(C)(C)C)nc2n1 + C[C@@H](Oc1cc(-c2cnn(C3CCNCC3)c2)cnc1N)c1c(Cl)ccc(F)c1Cl [Crizotinib] (partner 1 µM)
BEN; first compound 0.01 µM
  relative viability: 1.05
BEN; first compound 0.03162 µM
  relative viability: 0.85
BEN; first compound 0.1 µM
  relative viability: 0.867
BEN; first compound 0.3162 µM
  relative viability: 0.835
BEN; first compound 1 µM
  relative viability: 0.699
EKVX; first compound 0.01 µM
  relative viability: 1.21
EKVX; first compound 0.03162 µM
  relative viability: 0.924
EKVX; first compound 0.1 µM
  relative viability: 1.04
EKVX; first compound 0.3162 µM
  relative viability: 0.841
EKVX; first compound 1 µM
  relative viability: 0.664
HARA; first compound 0.01 µM
  relative viability: 1.19
HARA; first compound 0.03162 µM
  relative viability: 1.03
HARA; first compound 0.1 µM
  relative viability: 1.26
HARA; first compound 0.3162 µM
  relative viability: 1.17
HARA; first compound 1 µM
  relative viability: 0.816
HCC-366; first compound 0.01 µM
  relative viability: 0.632
HCC-366; first compound 0.03162 µM
  relative viability: 0.924
HCC-366; first compound 0.1 µM
  relative viability: 0.947
HCC-366; first compound 0.3162 µM
  relative viability: 0.741
HCC-366; first compound 1 µM
  relative viability: 0.512
HCC-827; first compound 0.01 µM
  relative viability: 0.979
HCC-827; first compound 0.03162 µM
  relative viability: 0.958
HCC-827; first compound 0.1 µM
  relative viability: 0.968
HCC-827; first compound 0.3162 µM
  relative viability: 0.966
HCC-827; first compound 1 µM
  relative viability: 0.937
LOU-NH91; first compound 0.01 µM
  relative viability: 0.733
LOU-NH91; first compound 0.03162 µM
  relative viability: 0.723
LOU-NH91; first compound 0.1 µM
  relative viability: 0.776
LOU-NH91; first compound 0.3162 µM
  relative viability: 0.747
LOU-NH91; first compound 1 µM
  relative viability: 0.725
NCI-H1355; first compound 0.01 µM
  relative viability: 1.17
NCI-H1355; first compound 0.03162 µM
  relative viability: 1.16
NCI-H1355; first compound 0.1 µM
  relative viability: 1.05
NCI-H1355; first compound 0.3162 µM
  relative viability: 1.11
NCI-H1355; first compound 1 µM
  relative viability: 1.06
NCI-H1437; first compound 0.01 µM
  relative viability: 1.12
NCI-H1437; first compound 0.03162 µM
  relative viability: 0.993
NCI-H1437; first compound 0.1 µM
  relative viability: 0.987
NCI-H1437; first compound 0.3162 µM
  relative viability: 1.16
NCI-H1437; first compound 1 µM
  relative viability: 0.756
NCI-H1734; first compound 0.01 µM
  relative viability: 0.652
NCI-H1734; first compound 0.03162 µM
  relative viability: 0.647
NCI-H1734; first compound 0.1 µM
  relative viability: 0.807
NCI-H1734; first compound 0.3162 µM
  relative viability: 0.719
NCI-H1734; first compound 1 µM
  relative viability: 0.667
NCI-H1792; first compound 0.01 µM
  relative viability: 1.07
NCI-H1792; first compound 0.03162 µM
  relative viability: 1.02
NCI-H1792; first compound 0.1 µM
  relative viability: 1.33
NCI-H1792; first compound 0.3162 µM
  relative viability: 1.41
NCI-H1792; first compound 1 µM
  relative viability: 0.541
NCI-H1993; first compound 0.01 µM
  relative viability: 0.875
NCI-H1993; first compound 0.03162 µM
  relative viability: 0.974
NCI-H1993; first compound 0.1 µM
  relative viability: 0.875
NCI-H1993; first compound 0.3162 µM
  relative viability: 0.985
NCI-H1993; first compound 1 µM
  relative viability: 0.783
NCI-H2009; first compound 0.01 µM
  relative viability: 1.1
NCI-H2009; first compound 0.03162 µM
  relative viability: 1.08
NCI-H2009; first compound 0.1 µM
  relative viability: 1.13
NCI-H2009; first compound 0.3162 µM
  relative viability: 1.11
NCI-H2009; first compound 1 µM
  relative viability: 0.953
NCI-H2087; first compound 0.01 µM
  relative viability: 0.925
NCI-H2087; first compound 0.03162 µM
  relative viability: 0.967
NCI-H2087; first compound 0.1 µM
  relative viability: 1.01
NCI-H2087; first compound 0.3162 µM
  relative viability: 0.958
NCI-H2087; first compound 1 µM
  relative viability: 1.06
NCI-H2170; first compound 0.01 µM
  relative viability: 1.35
NCI-H2170; first compound 0.03162 µM
  relative viability: 1.34
NCI-H2170; first compound 0.1 µM
  relative viability: 1.32
NCI-H2170; first compound 0.3162 µM
  relative viability: 1.27
NCI-H2170; first compound 1 µM
  relative viability: 1.16
NCI-H2405; first compound 0.01 µM
  relative viability: 0.834
NCI-H2405; first compound 0.03162 µM
  relative viability: 0.868
NCI-H2405; first compound 0.1 µM
  relative viability: 0.893
NCI-H2405; first compound 0.3162 µM
  relative viability: 0.873
NCI-H2405; first compound 1 µM
  relative viability: 0.8
NCI-H647; first compound 0.01 µM
  relative viability: 1.06
NCI-H647; first compound 0.03162 µM
  relative viability: 1.08
NCI-H647; first compound 0.1 µM
  relative viability: 1.53
NCI-H647; first compound 0.3162 µM
  relative viability: 1.3
NCI-H647; first compound 1 µM
  relative viability: 0.774
NCI-H661; first compound 0.03162 µM
  relative viability: 1.03
NCI-H661; first compound 0.1 µM
  relative viability: 0.972
NCI-H661; first compound 0.3162 µM
  relative viability: 1.04
NCI-H661; first compound 1 µM
  relative viability: 1.17
SK-LU-1; first compound 0.01 µM
  relative viability: 0.908
SK-LU-1; first compound 0.03162 µM
  relative viability: 1.02
SK-LU-1; first compound 0.1 µM
  relative viability: 0.901
SK-LU-1; first compound 0.3162 µM
  relative viability: 1
SK-LU-1; first compound 1 µM
  relative viability: 0.641
SK-MES-1; first compound 0.01 µM
  relative viability: 1.06
SK-MES-1; first compound 0.03162 µM
  relative viability: 1.05
SK-MES-1; first compound 0.1 µM
  relative viability: 1.14
SK-MES-1; first compound 0.3162 µM
  relative viability: 1.03
SK-MES-1; first compound 1 µM
  relative viability: 1.01
